{"source": "patent EP0732934B1", "about": "“LONG-ACTING INJECTION SUSPENSIONS OF AN LHRH ANALOGUE AND A PROCESS FOR THEIR PREPARATION” (Zentaris GmbH, priority 1993, dated 2005)", "key": {"[1]": {"settings": "in vivo, po; cited from earlier work"}, "[2]": {"settings": "compared to its embonic acid salt, subcutaneous injection in mice; cited from earlier work"}, "[3]": {"test_system": "testosterone plasma levels", "assay": "Duration of action in the animal: testosterone suppression after subcutaneous application", "type": "in vivo", "settings": "male rats", "method": "Suspensions of the precipitates were applied subcutaneously to male rats in the dose 0.5 mg cetrorelix/kg body weight and determined after application as a measure of the effect of the peptide on testosterone plasma levels. The effect of the cetrorelix consists in reduction of the testosterone level. As a reference an injection suspension was tested as well, that prepared according to DE 4023134 A1 and which contained the peptide embonate in poly(lactic acid, glycolic acid) copolymers. The duration of action of a non-sustained release dosage form of cetrorelix was determined via examination of the aqueous solution of cetrorelix acetate."}}, "note": "Structures can show the parent of a compound that is named as a salt."}
{"compound": "CN(C)CCCN1c2ccccc2CCc2ccccc21", "note": "[imipramine HCl]", "values": [{"measurement": "difference to imipramine embonate", "setting": "[1]", "result": "no difference"}]}
{"compound": "CCc1nc(N)nc(N)c1-c1ccc(Cl)cc1", "note": "[pyrimethamine]", "values": [{"measurement": "pharmacokinetic behaviour, plasma level course and AUC", "setting": "[2]", "result": "no difference"}]}
{"compound": "Ac-DNal-DpCl-Phe-DPal-Ser-Tyr-DCit-Leu-Arg-Pro-D-Ala-NH2 [cetrorelix acetate]", "values": [{"measurement": "effect of testosterone suppression achieved after the application", "setting": "[3]; 0.5 mg cetrorelix/kg body weight subcutaneously", "result": 6, "unit": "h"}, {"measurement": "duration of testosterone suppression under 1 ng/ml", "setting": "[3]; 0.5 mg cetrorelix/kg subcutaneously, values for subgroups of animals (acetate: two animals, three further animals; embonate: one animal)", "result": "24 h and up to 48 h"}]}
